Assay [1] deals with T1, human GpA TM domain (Homo sapiens, UniProt P02724).
T1 construct: purchased Peptide Specialty Laboratories, Heidelberg, Germany; host or cells: chemical synthesis (custom peptide)
T1 sequence (P02724 88-120 limits assumed) 1: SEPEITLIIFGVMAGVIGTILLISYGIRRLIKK
T1 sequence (P02724 88-120 limits assumed) 2: T1 sequence (P02724 88-120 limits assumed) 1
Put plainly: Steady-state FRET, GpA TM helix dimer dissociation upon addition of SDS (mixed A8-35/SDS aggregates). The assay is classed as binding. Here is the method: (§1) For Förster resonance energy transfer (FRET) measurements, equal concentrations of FL- and TAMRA-labeled GpA TM domains were used. Concentrations of the peptide stock solutions were determined from absorbance measurements on a Perkin Elmer Lambda 35 UV/VIS spectrophotometer. In all experiments, we used 0.25 µM for each of the two labeled GpA peptides. Peptides dissolved in TFE and A8-35 dissolved in ethanol were mixed, and organic solvents were removed under a gentle stream of nitrogen gas. Residual solvent traces were removed by vacuum desiccation overnight. The dried peptide/polymer film was then hydrated in 10 mM HEPES buffer (pH 7.4) containing 150 mM NaCl.
(§2) After at least 2 h of incubation at 37°C and 10 min of centrifugation at 16,000 g, steady-state fluorescence measurements were performed with the supernatant at 25°C on a Horiba Fluoromax 4 system with both excitation and emission slits at 3 nm. The excitation wavelength was set at 439 nm, and emission spectra were recorded from 480 to 650 nm. For FRET measurements with SDS, several concentrations of SDS, both below and above the CMC determined for the given buffer conditions, were used, and hydrated samples were incubated overnight.
(§3) Energy transfer E was calculated using the donor fluorescence intensities at 525 nm in presence and absence of acceptor according to [drawing 1] (1)
FD is the fluorescence intensity of the donor sample, and FDA is the fluorescence intensity of the sample containing donor and acceptor GpA TM domains at equal concentrations. The energy transfer of sequence-specific TM helix dimerization, ED, can be expressed as: [drawing 2] (2) where f D is the fraction of dimeric TM helices, P D is the probability of donor quenching when the peptides form a dimer, and E R is the energy transfer in the dimer.
The probability P D of donor quenching depends on the molar ratio of the acceptor peptides [drawing 3] , where [a] and [d] are the concentrations of acceptor and donor peptides, respectively. If the distance of the fluorophores in the dimer is much smaller than the Förster radius, as is the case here, ER can be taken as unity.
The fraction of dimers can be written as [drawing 4] , where [D] is the concentration of dimeric peptides and [T] the total peptide concentration.
The dissociation constant, K D, is given by [drawing 6] (4) where the monomer concentration is [drawing 7] .
This indicates a strong destabilization of the GpA dimer after addition of SDS, resulting in dissociation of GpA TM dimers in mixed A8-35/SDS aggregates. […]
Figure 6 Dissociation of the GpA TM domain in APol upon addition of SDS. […] SDS was added to preformed APol/GpA complexes, and emission spectra were recorded at 25°C after incubation at 37°C. […]

Assay [2] concerns the target T1, human GpA TM domain. Put plainly: FRET kinetics of exchange of GpA TM peptides between particles/micelles. The assay is classed as binding. The settings on record: for amplitude of first (fast) phase / amplitude of second (slow) phase / exchange rate constant, first (fast) phase / exchange rate constant, second (slow) phase: double-exponential fit. How it is done:
as §1, §2, §3
To investigate the effect of A8-35 on the GpA dimer stability in greater detail, we next performed kinetic measurements and determined the exchange rates of GpA TM helices between various polymer particles after reconstitution. Upon addition of an excess of a competing surfactant, such as free APols, detergents or phospholipids, MPs can be released from preformed complexes with APols, although at very slow dissociation rates, and e.g. integrate into detergent micelles, [37]-[39]. To test this, donor- and acceptor-labeled GpA peptides were individually solubilized in 20 µM A8-35 and incubated at 37°C for at least 2 h. Next, A8-35-solubilized donor and acceptor peptides were mixed in a 1∶1 ratio, and fluorescence emission spectra were recorded every 10 min for about 17 h (Figure 3A). As a control necessary for calculation of energy transfer, this measurement was also performed with solely the donor sample, for which no changes in fluorescence intensity were observed. […] To compare the exchange rates measured in APols with rates determined in micellar environments, the same experiment was performed in 5 mM DDM micelles (Figure 3C).
Figure 3 Kinetics of the exchange of GpA TM peptides between APol aggregates. Donor- and acceptor-labelled GpA TM (each 0.25 µM) domains were separately solubilized in 20 µM APol at a final polymer/peptide ratio of 40∶1. (A) After incubation at 37°C, donor and acceptor were mixed, and emission spectra (normalized at 525 nm) were recorded every 10 min over a time period of 17 h at 25°C. (B) The energy transfer increased over hours to the level determined by steady-state FRET measurements due to mixing of donor- and acceptor-labelled peptides.

Molecules are shown by their SMILES.

Turning to `CC[C@H](C)[C@H](NC(=O)CNC(=O)[C@H](Cc1ccc(O)cc1)NC(=O)[C@H](CO)NC(=O)[C@@H](NC(=O)[C@H](CC(C)C)NC(=O)[C@H](CC(C)C)NC(=O)[C@@H](NC(=O)[C@@H](NC(=O)CNC(=O)[C@@H](NC(=O)[C@@H](NC(=O)CNC(=O)[C@H](C)NC(=O)[C@H](CCSC)NC(=O)[C@@H](NC(=O)CNC(=O)[C@H](Cc1ccccc1)NC(=O)[C@@H](NC(=O)[C@@H](NC(=O)[C@H](CC(C)C)NC(=O)[C@@H](NC(=O)[C@@H](NC(=O)[C@H](CCC(=O)O)NC(=O)[C@@H]1CCCN1C(=O)[C@H](CCC(=O)O)NC(=O)[C@@H](N)CO)[C@@H](C)CC)[C@@H](C)O)[C@@H](C)CC)[C@@H](C)CC)C(C)C)C(C)C)[C@@H](C)CC)[C@@H](C)O)[C@@H](C)CC)[C@@H](C)CC)C(=O)N[C@@H](CCCNC(=N)N)C(=O)N[C@@H](CCCNC(=N)N)C(=O)N[C@@H](CC(C)C)C(=O)N[C@H](C(=O)N[C@@H](CCCCN)C(=O)N[C@@H](CCCCN)C(=O)O)[C@@H](C)CC` [GpA TM domain], on human GpA TM domain [1] (20 µM A8-35 with SDS, analyzed concentration range, compared with DDM/SDS), the “complete unfolding of GpA dimer in APol/SDS mixed micelles” value is recorded as “not observed in case of APol/SDS mixed micelles”. Moreover, on human GpA TM domain [1] (SDS exceeding 1.5 mM, 20 µM A8-35, 0.5 µM labeled GpA TM domain, 25°C, n = 3), the “fraction of dimeric GpA” value was “about 0.3”. The “increase in the dissociation constant upon SDS addition” value on human GpA TM domain [1] (no SDS vs SDS exceeding 1.5 mM, 20 µM A8-35, 0.5 µM labeled GpA TM domain, 25°C, n = 3) is recorded as “about one order of magnitude”. Besides, the “fraction of dimeric GpA” value at human GpA TM domain [1] (no SDS, 20 µM A8-35, 0.5 µM labeled GpA TM domain, 25°C, n = 3) is listed as 0.7. In addition, at human GpA TM domain [2] (5 mM DDM micelles), the “amplitude of first (fast) phase” value turned out to be 13.3; the “amplitude of second (slow) phase” value was 15.6; the “exchange rate constant, first (fast) phase” value is 41.5 h⁻¹; the “exchange rate constant, second (slow) phase” value was 5.8 h⁻¹. The “duration of peptide exchange” value on human GpA TM domain [2] (5 mM DDM micelles, listed as GpA TM peptides) is reported as “completed after some dozen minutes”. The energy transfer at human GpA TM domain [2] (17 h after 1:1 mixing of donor- and acceptor-labeled peptides (each 0.25 µM) in 20 µM A8-35, 25°C) is given as roughly 35%. Also, the “dimer fraction after exchange” value on human GpA TM domain [2] (17 h after mixing, from energy transfer, 20 µM A8-35, 25°C) was roughly 0.7. The “duration of peptide exchange” value at human GpA TM domain [2] (A8-35 (20 µM)) was “proceeded for several hours”. For the same compound, at human GpA TM domain [2] (A8-35 (20 µM), 25°C), the “amplitude of first (fast) phase” value is 8.7; the “amplitude of second (slow) phase” value is 12.4; the “exchange rate constant, first (fast) phase” value is 2.2 h⁻¹; the “exchange rate constant, second (slow) phase” value was 0.17 h⁻¹.

Source of the values: PMC4210147, “Sequence-Specific Dimerization of a Transmembrane Helix in Amphipol A8-35” (PLoS ONE, 2014).
